The source of these data is patent publication EP0464206A1, “DRUG FOR IMPROVING BRAIN FUNCTION” (DAIICHI PHARMACEUTICAL CO., LTD., priority 1989, dated 1990).

Data set [1] relates to patients, who suffered from cerebrovascular dementia or Alzheimer's type senile dementia with Parkinson's disease as a complication. Description: Clinical administration of DBcAMP by intravenous drip infusion to dementia patients. Format: in vivo. The note with it: for Side effect / Progress after administration and evaluation (symptom/ condition): 300 mg/day intravenous drip infusion for 8 hours. As for the experimental part:
300 mg of sodium N⁶-2'-0-dibutyryladenosine-3',5'-cyclic phosphate (hereinafter, abbreviated as DBcAMP) was dissolved in a saline and administered to five patients, who suffered from cerebrovascular dementia or Alzheimer's type senile dementia with Parkinson's disease as a complication, by intravenous drip infusion for approximately 8 hours per day continuously.
These patients gave no response to a call and their intellectual level was decreased. […] Therefore, it was recognized that these patients suffered from serious dementia.

Data set [2] is described as follows: Acute toxicity in rats. The note with it: in vivo, iv; rat, intravenously injected; read-out: LD₅₀. As for the experimental part: The cAMP derivative of formula (I) and a salt thereof were administered to rats in order to examine the acute toxicities of these compounds.
(§1) DBcAMP was intravenously injected into rats and mice to thereby examine the acute toxicity thereof. As a result, LD₅₀ of this compound to rat was 459 mg/kg while that to mouse was 545 mg/kg.

Data set [3] is described as follows: Acute toxicity in mice. The note with it: in vivo, iv; mouse, intravenously injected; read-out: LD₅₀. As for the experimental part:
as §1

The mark [4] stands for this setting: Test 2: patient five, Cerebrovascular dementia.

As for `CCCC(=O)Nc1ncnc2c1ncn2[C@@H]1O[C@@H]2COP(=O)(O)O[C@H]2[C@H]1OC(=O)CCC` [DBcAMP, sodium N⁶-2'-0-dibutyryladenosine-3',5'-cyclic phosphate], the Side effect entry in data set [1] (Test 1: patient three, Alzheimer's type dementia) was “None”; in data set [1] (setting [4]) it was “None”; in data set [1] (Test 3: patient four, Cerebrovascular dementia) it was “None”; in data set [1] (Test 4: patient two, Alzheimer's type dementia) it was “None”; in data set [1] (Test 5: patient one, Cerebrovascular dementia, multiple cerebral infarct) it was “None”. Further, the “Progress after administration and evaluation (symptom/ condition)” value in data set [1] (setting [4]) is on record as “Showed "Yes" or "No" for simple question by shaking head 1 week after the administration. No speech but groan. Remarkable improvement in symptoms caused by a decline in brain function, compared before the administration”; in data set [1] (Test 3: patient four, Cerebrovascular dementia (with Parkinson's disease)) it was “Groaned in night from the second day of the administration, after a year's silence. Groaning became larger thereafter. Improvement in various symptoms caused by a decline in brain function”; in data set [1] (Test 4: patient two, Alzheimer's type dementia (with Parkinson's disease)), “Answered to call 1 week after the administration. Soliloquized in night. Remarkable improvement in symptoms caused by a decline in brain function”. Also, the “symptoms of the complicated Parkinson's disease” value in data set [1] (five patients, 300 mg/day intravenous drip infusion) was “disappearance of oily skin and reduced myosclerosis”. Further, the results for the LD50 in data set [2] and in data set [3] were 459 mg/kg and 545 mg/kg, respectively.
